The pKi is the Ki on a negative log10 scale, so that one unit is a factor of ten.

This is an account of results in patent US4479941A, “Renin inhibitory peptides having PHE^13 delection” (Merck & Co., Inc., priority 1982, dated 1984).

The target of one assay is hog kidney renin (Sus scrofa, UniProt A0A287APG1). The assay can be described thus: Hog renin inhibition. The conditions noted are these: pH 7.3, read-out: I50 (concentration of peptide inhibitor necessary to produce 50% inhibition of renin activity). It is filed as biochemical. As for the experimental part:
An assay was carried out in order to determine the inhibitory potency of the peptides of the present invention.

Another assay concerns the target T1, human kidney renin (Homo sapiens, UniProt P00797).
T1 construct: human kidney renin purified as described in Bangham; from tissue; host or cells: human kidney
T1 sequence (P00797 67-406): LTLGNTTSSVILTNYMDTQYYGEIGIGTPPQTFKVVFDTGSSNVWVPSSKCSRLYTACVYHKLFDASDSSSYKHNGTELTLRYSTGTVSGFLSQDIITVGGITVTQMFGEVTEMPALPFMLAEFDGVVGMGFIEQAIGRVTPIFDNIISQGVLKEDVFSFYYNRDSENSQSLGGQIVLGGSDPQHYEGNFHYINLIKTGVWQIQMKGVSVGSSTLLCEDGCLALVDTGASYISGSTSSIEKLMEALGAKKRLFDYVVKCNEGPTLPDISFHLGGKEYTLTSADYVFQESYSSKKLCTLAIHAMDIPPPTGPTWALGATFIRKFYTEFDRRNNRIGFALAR
The assay is described as follows: Human renin inhibition. It is filed as biochemical. The conditions noted are these: purified human kidney renin; read-out: KI (dissociation constant of the inhibited enzyme-inhibitor complex). As for the experimental part:
An assay was carried out in order to determine the inhibitory potency of the peptides of the present invention. The assay measured the inhibition of human kidney renin purified as described in Bangham, D. R., Robertson, I., Robinson, J. I. S., Robinson, C. J., and Tree, M., Clinical Science and Molecular Medicine, 48 (Supp. 2): 136s-159s (1975), and further purified by affinity chromatography on pepstatin-aminohexyl-Sepharase as described in Poe, M., Wu., J. K., Florance, J. R., Radkey, J. A., Bennett, C. D., and Hoagsteen, K., J. Biol. Chem. (1982, in press). The assay was also in accordance with Poe et al. cited above. Results are expressed as KI values, which refer to the dissociation constant of the inhibited enzyme-inhibitor complex. This KI value was obtained as described above.

In assay [1] the test system is aspartyl proteases such as pepsin, cathepsin D, and renin. The settings on record: other acid proteases; cited from earlier work.
For the next assay, the system named is hog renin. The conditions noted are these: after injection of hog renin into nephrectomized rats (Gross et al. 1971); cited from earlier work.

pIC50, pKi: −log10 of the molar value. Square brackets hold non-standard residues; d marks the D form. Peptide text beside a SMILES is read from it. * marks the point of attachment. Sta = CC(C)C[C@H](N)[C@@H](O)CC(=O)O; X2 = c1ccc(CC(N*)c2ccccc2)cc1; NH(CH2)3Ph = c1ccc(CCCN*)cc1; NHPhenethyl = c1ccc(CCN*)cc1; X5 = c1ccc(CN2CCC(N*)CC2)cc1; Isobutyryl = CC(C)C(=O)*; Boc = CC(C)(C)OC(=O)*; NHBn = c1ccc(CN*)cc1; X3 = OCCN(CCO)CCCN*

Chain of hog kidney renin (A0A287APG1 67-407): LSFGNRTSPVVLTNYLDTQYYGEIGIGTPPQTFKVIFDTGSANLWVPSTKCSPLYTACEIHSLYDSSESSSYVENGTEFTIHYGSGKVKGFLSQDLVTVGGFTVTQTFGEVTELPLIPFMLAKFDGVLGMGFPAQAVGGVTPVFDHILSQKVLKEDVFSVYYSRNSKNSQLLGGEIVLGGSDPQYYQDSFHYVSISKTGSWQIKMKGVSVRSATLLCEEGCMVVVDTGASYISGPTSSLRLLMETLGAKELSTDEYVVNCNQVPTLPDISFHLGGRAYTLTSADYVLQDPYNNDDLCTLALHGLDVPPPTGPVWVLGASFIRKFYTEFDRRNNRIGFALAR

`CC(C)C[C@H](NC(=O)C[C@H](O)[C@H](CC(C)C)NC(=O)[C@H](Cc1c[nH]cn1)NC(=O)[C@H](Cc1ccccc1)NC(=O)OC(C)(C)C)C(=O)NC(C)c1cccc2ccccc12` (single isomer, unassigned) [BOC--Phe-His-Sta-Leu-(+)-α-naphthylethylamide]: the pIC50 at hog kidney renin was 7.96.

Turning to `CC(=O)N[C@@H](Cc1ccccc1)C(=O)N[C@@H](Cc1c[nH]cn1)C(=O)N[C@@H](Cc1ccccc1)[C@@H](O)CC(=O)N[C@@H](CC(C)C)C(=O)NCc1ccccc1` [Acetyl--Phe-His-AHPPA-Leu-benzylamide], the pIC50 at hog kidney renin was 8.47.

On to `CC(C)C[C@H](NC(=O)C[C@H](O)[C@H](Cc1ccccc1)NC(=O)[C@H](Cc1c[nH]cn1)NC(=O)[C@H](Cc1ccccc1)NC(=O)OC(C)(C)C)C(=O)NCc1ccccc1` [BOC--Phe--His--AHPPA--Leu--benzylamide, BOC--Phe-His-AHPPA^4 -Lleu-benzylamide], for which the pIC50 on hog kidney renin is 8.85.

For `CC(C)C[C@H](NC(=O)C[C@H](O)[C@H](CC(C)C)NC(=O)[C@H](Cc1c[nH]cn1)NC(=O)[C@H](Cc1ccccc1)NC(=O)OC(C)(C)C)C(=O)N[C@@H](CC(C)C)[C@@H](O)CC(=O)O` [BOC--Phe--His--Sta--Leu--Sta, BOC--Phe-His-Sta-Leu-Sta] (Boc-FH[Sta]L[Sta]-OH), at hog kidney renin, the pIC50 was 7.44.

For the compound `CC(C)C[C@H](NC(=O)C[C@H](O)[C@H](CC(C)C)NC(=O)[C@H](Cc1c[nH]cn1)NC(=O)[C@H](Cc1ccccc1)NC(=O)OC(C)(C)C)C(=O)NCc1ccccc1` [BOC--Phe--His--Sta--Leu--benzylamide, BOC--Phe-His-Sta-Leu-benzylamide] (Boc-FH[Sta]L-NHBn), the pIC50 at hog kidney renin was 7.96.

As to `CC(C)C[C@H](NC(=O)C[C@H](O)[C@H](CC(C)C)NC(=O)[C@H](Cc1c[nH]cn1)NC(=O)[C@H](Cc1ccccc1)NC(=O)OC(C)(C)C)C(=O)NC1CCN(Cc2ccccc2)CC1` [BOC--Phe-His-Sta-Leu-(4-amido-1-benzylpiperidine)] (Boc-FH[Sta]L-X5), the pKi on human kidney renin is 10.22.

As for `CC(C)C[C@H](NC(=O)C[C@H](O)[C@H](CC(C)C)NC(=O)[C@H](Cc1c[nH]cn1)NC(=O)[C@H](Cc1ccccc1)NC(=O)OC(C)(C)C)C(=O)NCCCN(CCO)CCO` [BOC--Phe-His-Sta-Leu-[N-(3-amidopropyl)diethanolamine]] (Boc-FH[Sta]L-X3), at human kidney renin, the pKi is 7.28.

Take `CC(C)C[C@H](NC(=O)C[C@H](O)[C@H](CC(C)C)NC(=O)[C@H](Cc1c[nH]cn1)NC(=O)[C@H](Cc1ccccc1)NC(=O)[C@@H]1CCCN1C(=O)[C@H](Cc1c[nH]cn1)NC(=O)C(C)C)C(=O)NC(Cc1ccccc1)c1ccccc1` (stereo partly drawn) [IBU--His-Pro-Phe-His-Sta-Leu-1,2-diphenylethylamide] (Isobutyryl-HPFH[Sta]L-X2): at hog kidney renin, the pIC50 is 8.25.

With `CC(C)C[C@H](NC(=O)C[C@H](O)[C@H](CC(C)C)NC(=O)[C@H](Cc1c[nH]cn1)NC(=O)[C@H](Cc1ccccc1)NC(=O)[C@@H]1CCCN1C(=O)[C@H](Cc1c[nH]cn1)NC(=O)C(C)C)C(=O)NCCc1ccccc1` [IBU--His-Pro-Phe-His-Sta-Leu-2-phenylethylamide] (Isobutyryl-HPFH[Sta]L-NHPhenethyl), at hog kidney renin, the pIC50 was 7.52.

On to `CC(C)C[C@H](NC(=O)C[C@H](O)[C@H](CC(C)C)NC(=O)[C@H](Cc1c[nH]cn1)NC(=O)[C@H](Cc1ccccc1)NC(=O)[C@@H]1CCCN1C(=O)[C@H](Cc1c[nH]cn1)NC(=O)C(C)C)C(=O)NCCCc1ccccc1` [IBU--His-Pro-Phe-His-Sta-Leu-3-phenylpropylamide] (Isobutyryl-HPFH[Sta]L-{NH(CH2)3Ph}), for which the pIC50 at hog kidney renin was 7.72.

As to `CC(C)C[C@H](NC(=O)C[C@H](O)[C@H](CC(C)C)NC(=O)[C@H](Cc1c[nH]cn1)NC(=O)[C@H](Cc1ccccc1)NC(=O)[C@@H]1CCCN1C(=O)[C@H](Cc1c[nH]cn1)NC(=O)C(C)C)C(=O)NCc1ccccc1` [N-Isobutyryl-L-histidyl-L-prolyl-L-phenylalanyl-L-histidyl-(3S,4S)-statyl-L-leucyl-benzylamide] (Isobutyryl-HPFH[Sta]L-NHBn), the pKi at human kidney renin was 7.92. Further, on hog kidney renin, the pIC50 is 7.89.

On to pepstatin, for which the “inhibition of aspartyl proteases (selectivity)” value in assay [1] is reported as “inhibition of a variety of other acid proteases in addition to renin”. In addition, the “reduction of blood pressure in vivo” value with hog renin is “reduce blood pressure in vivo”.
